Where a name gives a salt, the structure may show the parent alone.
target: T1, α7 nAChR (Rattus norvegicus, UniProt Q05941); assay: [3H]-MLA competition binding assay in rat brain membranes; settings: not given
T1 construct: brains (whole brain minus cerebellum) are dissected quickly, weighed and homogenized; from tissue; host or cells: rat brain (whole brain minus cerebellum) membrane homogenate
Method: Materials and Methods for Identifying Binding Constants:
Membrane Preparation. Male Sprague-Dawley rats (300–350 g) are sacrificed by decapitation and the brains (whole brain minus cerebellum) are dissected quickly, weighed and homogenized in 9 volumes/g wet weight of ice-cold 0.32M sucrose using a rotating pestle on setting 50 (10 up and down strokes). The homogenate is centrifuged at 1,000×g for 10 minutes at 4° C. The supernatant is collected and centrifuged at 20,000×g for 20 minutes at 4° C. The resulting pellet is resuspended to a protein concentration of 1–8 mg/mL. Aliquots of 5 mL homogenate are frozen at −80° C. until needed for the assay. On the day of the assay, aliquots are thawed at room temperature and diluted with Kreb's—20 mM Hepes buffer pH 7.0 (at room temperature) containing 4.16 mM NaHCO3, 0.44 mM KH2PO4, 127 mM NaCl, 5.36 mM KCl, 1.26 mM CaCl2, and 0.98 mM MgCl2, so that 25–150 μg protein are added per test tube. Proteins are determined by the Bradford method (Bradford, M. M., Anal. Biochem., 72, 248–254, 1976) using bovine serum albumin as the standard.
Binding Assay. For saturation studies, 0.4 mL homogenate are added to test tubes containing buffer and various concentrations of radioligand, and are incubated in a final volume of 0.5 mL for 1 hour at 25° C. Nonspecific binding was determined in tissues incubated in parallel in the presence of 1 μM MLA, added before the radioligand. In competition studies, drugs are added in increasing concentrations to the test tubes before addition of approximately 3.0 to 4.0 nM [^3H]-MLA. The incubations are terminated by rapid vacuum filtration through Whatman GF/B glass filter paper mounted on a 48 well Brandel cell harvester. Filters are pre-soaked in 50 mM Tris HCl pH 7.0–0.05% polyethylenimine. The filters are rapidly washed two times with 5 mL aliquots of cold 0.9% saline and then counted for radioactivity by liquid scintillation spectrometry.
Data Analysis. In competition binding studies, the inhibition constant (Ki) was calculated from the concentration dependent inhibition of [^3H]-MLA binding obtained from non-linear regression fitting program according to the Cheng-Prusoff equation (Cheng, Y. C. and Prussoff, W. H., Biochem. Pharmacol., 22, p. 3099–3108, 1973). Hill coefficients were obtained using non-linear regression (GraphPad Prism sigmoidal dose-response with variable slope).

T1 sequence (Q05941 23-502): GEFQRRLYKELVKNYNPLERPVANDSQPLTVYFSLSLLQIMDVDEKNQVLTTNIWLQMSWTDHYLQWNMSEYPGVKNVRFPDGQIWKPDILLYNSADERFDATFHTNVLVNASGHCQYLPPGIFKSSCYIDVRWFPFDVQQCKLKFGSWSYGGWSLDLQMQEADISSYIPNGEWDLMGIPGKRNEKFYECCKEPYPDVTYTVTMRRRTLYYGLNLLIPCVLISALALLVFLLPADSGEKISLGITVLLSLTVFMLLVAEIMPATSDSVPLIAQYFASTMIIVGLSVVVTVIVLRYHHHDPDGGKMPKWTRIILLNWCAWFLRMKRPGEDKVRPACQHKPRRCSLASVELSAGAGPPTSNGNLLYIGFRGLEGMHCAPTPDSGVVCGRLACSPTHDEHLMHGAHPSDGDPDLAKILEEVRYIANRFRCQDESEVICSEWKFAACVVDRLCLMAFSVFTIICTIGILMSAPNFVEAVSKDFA

Structure (SMILES) | Ki [nM]
O=C(N[C@H]1CN2CCC1CC2)c1cc2c(cn1)OCC2 [Example 1, N-[(3R)-1-azabicyclo[2.2.2]oct-3-yl]-2,3-dihydrofuro[2,3-c]pyridine-5-carboxamide dihydrochloride] | 50 to 60
Cc1cc2cc(C(=O)N[C@H]3CN4CCC3CC4)ncc2o1 [Example 6, N-[(3R)-1-azabicyclo[2.2.2]oct-3-yl]-2-methylfuro[2,3-c]pyridine-5-carboxamide dihydrochloride] | 119
Cc1coc2cnc(C(=O)N[C@H]3CN4CCC3CC4)cc12 [Example 9, N-[(3R)-1-azabicyclo[2.2.2]oct-3-yl]-3-methylfuro[2,3-c]pyridine-5-carboxamide] | 1 to 6
O=C(N[C@H]1CN2CCC1CC2)c1cc2cccnc2s1 [Example 13, N-((3R)-1-azabicyclo[2.2.2]oct-3-yl)thieno[2,3-b]pyridine-2-carboxamide dihydrochloride] | 108
O=C(N[C@H]1CN2CCC1CC2)c1cc2ccncc2s1 [Example 17, N-[(3R)-1-azabicyclo[2.2.2]oct-3-yl]thieno[2,3-c]pyridine-2-carboxamide dihydrochloride] | 65
O=C(N[C@H]1CN2CCC1CC2)c1ccc2sccc2n1 [Example 19, N-[(3R)-1-azabicyclo[2.2.2]oct-3-yl]thieno[3,2-b]pyridine-5-carboxamide dihydrochloride] | 274
O=C(N[C@H]1CN2CCC1CC2)c1cnc2ccsc2c1 [Example 20, N-[(3R)-1-azabicyclo[2.2.2]oct-3-yl]thieno[3,2-b]pyridine-6-carboxamide dihydrochloride] | 952
O=C(N[C@H]1CN2CCC1CC2)c1cc2ccsc2cn1 [Example 22, N-[(3R)-1-azabicyclo[2.2.2]oct-3-yl]thieno[2,3-c]pyridine-5-carboxamide dihydrochloride] | 5
O=C(N[C@H]1CN2CCC1CC2)c1cc2c(Cl)coc2cn1 [Example 28, N-[(3R)-1-Azabicyclo[2.2.2]oct-3-yl]-3-chlorofuro[2,3-c]pyridine-5-carboxamide dihydrochloride] | 3
O=C(N[C@H]1CN2CCC1CC2)c1cc2c(Br)coc2cn1 [Example 29, N-[(3R)-1-Azabicyclo[2.2.2]oct-3-yl]-3-bromofuro[2,3-c]pyridine-5-carboxamide] | 4
O=C(N[C@H]1CN2CCC1CC2)c1cc2occc2cn1 [Example 30, N-[(3R)-1-Azabicyclo[2.2.2]oct-3-yl]furo[3,2-c]pyridine-6-carboxamide dihydrochloride] | 45
O=C(N[C@H]1CN2CCC1CC2)c1cc2c(Br)csc2cn1 [Example 31, N-[(3R)-1-azabicyclo[2.2.2]oct-3-yl]-3-bromothieno[2,3-c]pyridine-5-carboxamide] | 9
C[C@H]1[C@H](NC(=O)c2cc3ccoc3cn2)C2CCN1CC2 [Example 33, N-[(2S,3R)-2-methyl-1-azabicyclo[2.2.2]oct-3-yl]furo[2,3-c]pyridine-5-carboxamide dihydrochloride] | 15
Cc1coc2cnc(C(=O)N[C@@H]3C4CCN(CC4)[C@H]3C)cc12 [Example 34, 3-methyl-N-[(2S,3R)-2-methyl-1-azabicyclo[2.2.2]oct-3-yl]furo[2,3-c]pyridine-5-carboxamide dihydrochloride] | 15
C[C@H]1[C@H](NC(=O)c2cc3ccsc3cn2)C2CCN1CC2 [Example 35, N-[(2S,3R)-2-methyl-1-azabicyclo[2.2.2]oct-3-yl]thieno[2,3-c]pyridine-5-carboxamide dihydrochloride] | 18
C[C@H]1[C@H](NC(=O)c2cc3sccc3cn2)C2CCN1CC2 [Example 36, N-[(2S,3R)-2-methyl-1-azabicyclo[2.2.2]oct-3-yl]thieno[3,2-c]pyridine-6-carboxamide dihydrochloride] | 12
O=C(N[C@H]1CN2CCC1CC2)c1cc2cscc2cn1 [Example 40, N-[(3R)-1-azabicyclo[2.2.2]oct-3-yl]thieno[3,4-c]pyridine-6-carboxamide methanesulfonate] | 25

same assay, conditions: competition with approximately 3.0 to 4.0 nM [3H]-MLA, rat brain (whole brain minus cerebellum) homogenate, 1 hour at 25° C, Cheng-Prusoff; read-out: Ki Value

Structure (SMILES) | Ki [nM]
O=C(N[C@H]1CN2CCC1CC2)c1cc2cnccc2o1 [Example 2, N-[(3R)-1-azabicyclo[2.2.2]oct-3-yl]furo[3,2-c]pyridine-2-carboxamide] | 1300
O=C(N[C@H]1CN2CCC1CC2)c1cc2ccoc2c(Cl)n1 [Example 3, N-[(3R)-1-azabicyclo[2.2.2]oct-3-yl]-7-chlorofuro[2,3-c]pyridine-5-carboxamide hydrochloride] | 2250
O=C(N[C@H]1CN2CCC1CC2)c1cc2ccoc2cn1 [Example 4, N-[(3R)-1-azabicyclo[2.2.2]oct-3-yl]furo[2,3-c]pyridine-5-carboxamide dihydrochloride] | 9 to 10
O=C(N[C@H]1CN2CCC1CC2)c1cc2cnccc2s1 [Example 21, N-[(3R)-1-azabicyclo[2.2.2]oct-3-yl]thieno[3,2-c]pyridine-2-carboxamide dihydrochloride] | 269
O=C(N[C@H]1CN2CCC1CC2)c1cc2sccc2cn1 [Example 23, N-[(3R)-1-azabicyclo[2.2.2]oct-3-yl]thieno[3,2-c]pyridine-6-carboxamide dihydrochloride] | 5

Reference: patent US7067515B2, “Quinuclidines-substituted-multi-cyclic-heteroaryls for the treatment of disease” (Pfizer Inc., priority 2001, dated 2006)
